From US20260078103A1, “ISOQUINOLONES AS PI3K INHIBITORS” (OnKure, Inc., priority 2022, published 2026)
Where two headings read alike, the source gives them in different places.

Columns and labels:
Assay type in all cases: cell-based
[1] = tested on: phosphorylation of AKT (pAKT) in SKBR3 cells express WT PI3Ka; test: In vitro cell pAKT (Ser473) HTRF, SKBR3 cells; conditions: cellular pAKT
Outline: (§1)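 pAKT (Ser473) was quantified by HTRF in lysates from cells exposed 6 h at 37 °C to 10-point compound series, with T47D in insulin-supplemented RPMI/10% FBS and SKBR3 in McCoy's 5a/10% FBS. Controls: 0.1% DMSO (high) and 10 uM alpelisib (low). IC50 from sigmoidal curve fitting.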

[2] = tested on: phosphorylation of AKT (pAKT) in T47D cells expressing mutant PI3Ka (H1047R); test: In vitro cell pAKT (Ser473) HTRF, T47D cells; conditions: cellular pAKT, T47D cells, mutant PI3Ka (H1047R), 6 hours, read-out: Avg T-47D IC50
Outline: as §1

[3] = tested on: T47D cells expressing mutant PI3Ka (H1047R); test: In vitro cell proliferation, T47D cells (CellTiter-Glo); conditions: inhibition of proliferation, read-out: Avg T-47D EC50
Outline: (§2)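 T47D (PI3Kα H1047R; RPMI, 10% FBS, insulin 0.2 units/mL) or SKBR3 (WT PI3Kα; McCoys 5a, 10% FBS) cells seeded at 1,500 cells/well on 10-point compound dilutions, grown 72 h at 37 °C. CellTiter-Glo luminescence; inhibition normalised to 0.1% DMSO and 10 uM alpelisib, EC50 from four-parameter fit.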

[4] = tested on: SKBR3 cells express WT PI3Ka; test: In vitro cell proliferation, SKBR3 cells (CellTiter-Glo); conditions: inhibition of proliferation
Outline: as §2

| SMILES | IC50 ([1]; Homo sapiens, SK-BR-3, 6 h) [nM] | IC50 ([2]; Homo sapiens, T47D, 6 h) [nM] | EC50 ([3]; Homo sapiens, T47D, 72 h) [nM] | EC50 ([4]; Homo sapiens, SK-BR-3, 72 h) [nM] | IC50 ([1]; 6 hours) [nM] | IC50 [2] [nM] | EC50 ([3]; 72 hours) [nM] | EC50 ([4]; 72 hours) [nM] |
| --- | --- | --- | --- | --- | --- | --- | --- | --- |
| Cc1cc([C@@H](C)Nc2ccccc2C(=O)O)c2cc(OCc3ccnc(C)c3)n(C)c(=O)c2c1 [Example 342] | > 15000 | 1 to 500 | 1 to 500 | > 15000 |  |  |  |  |
| Cc1cc(C(C)Nc2ccccc2C(=O)O)c2cc(C3=CCC(C)(C)CC3)n(C)c(=O)c2c1 (single isomer, unassigned) [Example 5, 2-((1-(3-(4,4-dimethylcyclohex-1-en-1-yl)-2,7-dimethyl-1-oxo-1,2-dihydroisoquinolin-5-yl)ethyl)amino)benzoic acid] |  |  |  |  | > 15000 | 2000 to 15000 | 2000 to 15000 | > 15000 |
| Cc1cc([C@@H](C)Nc2ccccc2C(=O)O)c2cc(C3C[C@H]3C)n(C)c(=O)c2c1 (single isomer, unassigned) [Example 310] | > 15000 | 1 to 500 | 1 to 500 |  |  |  |  | 2000 to 15000 |
| Cc1cc([C@@H](C)Nc2ccccc2C(=O)O)c2cc(-c3cnc(CF)cn3)n(C)c(=O)c2c1 [Example 393] | > 15000 | 1 to 500 | 1 to 500 | > 15000 |  |  |  |  |
| Cc1cc(C(C)Nc2ccccc2C(=O)O)c2cc(N3CCC4(CCC4)CC3)n(C)c(=O)c2c1 (stereo not drawn) [Example 63] | > 15000 | 1 to 500 | 2000 to 15000 | > 15000 |  |  |  |  |
| CCOc1ncc(-c2cc3c([C@@H](C)Nc4ccccc4C(=O)O)cc(C)cc3c(=O)n2C)s1 [Example 284] | 2000 to 15000 | 1 to 500 | 1 to 500 | > 15000 |  |  |  |  |
| Cc1cc([C@@H](C)Nc2ccccc2C(=O)O)c2cc(-c3cccc(C(F)F)n3)n(C)c(=O)c2c1 [Example 338] | > 15000 | 1 to 500 | 1 to 500 | 2000 to 15000 |  |  |  |  |
| Cc1cc(C(C)Nc2ccccc2C(=O)O)c2cc(N3CCN(CC(F)(F)F)CC3)n(C)c(=O)c2c1 (single isomer, unassigned) [Example 9, 2-((1-(2,7-dimethyl-1-oxo-3-(4-(2,2,2-trifluoroethyl)piperazin-1-yl)-1,2-dihydroisoquinolin-5-yl)ethyl)amino)benzoic acid] |  |  |  |  | > 15000 | 2000 to 15000 | 2000 to 15000 | > 15000 |
| Cc1cc(C(C)Nc2ccccc2C(=O)O)c2cc(N3CCN4CC(F)(F)CC4C3)n(C)c(=O)c2c1 (single isomer, unassigned) [Example 121] |  |  |  |  | > 15000 | 1 to 500 | 500 to 2000 | > 15000 |
| Cc1cc([C@@H](C)Nc2ncccc2C(=O)O)c2cc(N3CCN(CC(F)(F)F)CC3)n(C)c(=O)c2c1 [Example 503] | > 15000 | 500 to 2000 | 500 to 2000 | > 15000 |  |  |  |  |
| Cc1ncc(-c2cc3c([C@@H](C)Nc4ccccc4C(=O)O)cc(F)cc3c(=O)n2C)s1 [Example 501] | > 15000 | 1 to 500 | 1 to 500 | > 15000 |  |  |  |  |
| Cc1cc(-c2ncc(-c3cc4c([C@@H](C)Nc5ccccc5C(=O)O)cc(F)cc4c(=O)n3C)cc2F)on1 [Example 520] |  |  |  |  | > 15000 | 1 to 500 | 1 to 500 | > 15000 |
| C[C@@H](Nc1ccccc1C(=O)O)c1cc(F)cc2c(=O)n(C)c(C3CC3(F)F)cc12 (single isomer, unassigned) [Example 481] | > 15000 |  |  | > 15000 |  | 500 to 2000 | 500 to 2000 |  |
| Cc1cc(C(C)Nc2ccccc2C(=O)O)c2cc(N3CCN4CC(F)(F)CC4C3)n(C)c(=O)c2c1 (single isomer, unassigned) [Example 122] |  |  |  |  | > 15000 | > 15000 | 2000 to 15000 | > 15000 |
| Cc1cc([C@@H](C)Nc2ccccc2C(=O)O)c2cc(OCC(C)C)n(C)c(=O)c2c1 [Example 40, (R)-2-((1-(3-isobutoxy-2,7-dimethyl-1-oxo-1,2-dihydroisoquinolin-5-yl)ethyl)amino)benzoic acid] | > 15000 | 1 to 500 | 500 to 2000 | > 15000 |  |  |  |  |
